Measurements published in ChEMBL document CHEMBL2010645, “N-Caffeoyl serotonin as selective COX-2 inhibitor” (Bioorg Med Chem Lett, 2012).

Tests used:
[1] = target: T1, Prostaglandin G/H synthase 2 (Homo sapiens) (UniProt P35354); experiment: Inhibition of COX2 at 400 uM after 5 mins by spectrophotometric analysis
T1 sequence (whole entry): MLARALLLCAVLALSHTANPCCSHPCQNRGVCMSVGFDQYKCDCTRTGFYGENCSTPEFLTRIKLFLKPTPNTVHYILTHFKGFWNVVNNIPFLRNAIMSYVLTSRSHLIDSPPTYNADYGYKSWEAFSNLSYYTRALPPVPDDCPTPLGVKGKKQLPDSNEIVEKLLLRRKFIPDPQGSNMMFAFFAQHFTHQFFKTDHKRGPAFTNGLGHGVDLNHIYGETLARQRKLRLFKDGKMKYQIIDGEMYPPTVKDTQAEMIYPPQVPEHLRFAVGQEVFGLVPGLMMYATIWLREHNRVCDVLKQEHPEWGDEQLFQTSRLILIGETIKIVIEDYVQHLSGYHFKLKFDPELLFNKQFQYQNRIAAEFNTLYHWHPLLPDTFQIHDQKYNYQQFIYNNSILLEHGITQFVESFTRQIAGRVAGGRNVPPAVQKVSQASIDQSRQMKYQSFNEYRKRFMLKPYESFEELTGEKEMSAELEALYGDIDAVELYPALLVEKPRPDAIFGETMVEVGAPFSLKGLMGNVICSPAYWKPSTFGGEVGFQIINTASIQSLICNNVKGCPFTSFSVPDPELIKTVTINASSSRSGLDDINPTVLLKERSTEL

[2] = target: T2, Prostaglandin G/H synthase 1 (Homo sapiens, UniProt P23219); experiment: Inhibition of COX1 at 400 uM after 5 mins by spectrophotometric analysis
T2 sequence (P23219 whole entry): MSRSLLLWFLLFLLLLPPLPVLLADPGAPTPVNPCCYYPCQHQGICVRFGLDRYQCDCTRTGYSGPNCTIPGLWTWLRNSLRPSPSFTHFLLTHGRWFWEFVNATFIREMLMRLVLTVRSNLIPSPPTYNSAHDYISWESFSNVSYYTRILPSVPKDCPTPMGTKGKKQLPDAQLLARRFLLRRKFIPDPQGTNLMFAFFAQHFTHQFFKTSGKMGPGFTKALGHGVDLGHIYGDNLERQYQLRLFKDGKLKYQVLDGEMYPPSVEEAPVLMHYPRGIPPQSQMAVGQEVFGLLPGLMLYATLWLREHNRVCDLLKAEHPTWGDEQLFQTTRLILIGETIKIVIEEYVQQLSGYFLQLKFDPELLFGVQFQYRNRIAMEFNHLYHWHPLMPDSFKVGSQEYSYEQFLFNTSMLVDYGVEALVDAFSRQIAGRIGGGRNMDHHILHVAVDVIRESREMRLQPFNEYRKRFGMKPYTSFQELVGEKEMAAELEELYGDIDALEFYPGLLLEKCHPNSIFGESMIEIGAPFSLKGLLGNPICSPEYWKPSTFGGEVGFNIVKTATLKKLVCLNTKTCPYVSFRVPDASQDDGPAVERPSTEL

[3] = target: T2, Prostaglandin G/H synthase 1; experiment: Inhibition of COX1 after 5 mins by spectrophotometric analysis
[4] = target: T3, Prostaglandin G/H synthase 2 (Homo sapiens, UniProt P35354); experiment: Uncompetitive inhibition of COX2 by Lineweaver-Burk plot analysis
T3 sequence (P35354 whole entry): T1 sequence (whole entry)

[5] = target: T3, Prostaglandin G/H synthase 2; experiment: Inhibition of COX2 after 5 mins by spectrophotometric analysis

## CC(=O)Oc1ccccc1C(=O)O
[1]
  inhibition: 19.3%

## COc1cc(/C=C/C(=O)NCCc2c[nH]c3ccc(O)cc23)ccc1O
[1]
  inhibition: 18.8%
[2]
  inhibition: 2.7%

## COc1ccc(/C=C/C(=O)NCCc2c[nH]c3ccc(O)cc23)cc1
[1]
  inhibition: 6.5%
[2]
  inhibition: 21.3%

## COc1ccc(/C=C/C(=O)NCCc2c[nH]c3ccc(O)cc23)cc1O
[1]
  inhibition: 8%
[2]
  inhibition: 7%

## COc1ccc(/C=C/C(=O)NCCc2c[nH]c3ccc(O)cc23)cc1OC
[1]
  inhibition: 18.2%
[2]
  inhibition: 29.9%

## O=C(/C=C/c1ccc(O)cc1)NCCc1c[nH]c2ccc(O)cc12
[1]
  inhibition: 13.9%
[2]
  inhibition: 12.5%

## O=C(/C=C/c1ccccc1)NCCc1c[nH]c2ccc(O)cc12
[1]
  inhibition: 8.2%
[2]
  inhibition: 18.2%

## O=C(O)/C=C/c1ccc(O)c(O)c1 [CAFFEIC ACID]
[3]
  IC50: > 400 µM

## O=C(/C=C/c1ccc(O)c(O)c1)NCCc1c[nH]c2ccc(O)cc12 [N-CAFFEOYLSEROTONIN]
[1]
  inhibition: 70.5%
[2]
  inhibition: 40.6%
[4]
  Ki: 65.5 µM
[5]
  IC50: 42.5 µM
[3]
  IC50: > 400 µM

## COc1cc(/C=C/C(=O)NCCc2c[nH]c3ccc(O)cc23)cc(OC)c1O [N-SINAPOYL SEROTONIN]
[1]
  inhibition: 27.2%
[2]
  inhibition: 44.9%
[5]
  IC50: > 400 µM
[3]
  IC50: > 400 µM

## NCCc1c[nH]c2ccc(O)cc12 [SEROTONIN]
[5]
  IC50: > 400 µM
[3]
  IC50: > 400 µM

## COc1cc(/C=C/C(=O)O)cc(OC)c1O [SINAPINATE]
[5]
  IC50: 28 µM
[3]
  IC50: 39.2 µM
